Test results published in patent publication US20230398125A1, “TREATING HEPATITIS” (Albireo AB, priority 2022, published 2023).
Where two headings read alike, the source gives them in different places.

What was measured:
[1] = Body weight, mortality and observations in HBV-infected PXB mice; assay type: in vivo; conditions: 10 and 30 mg/kg
[2] = system: HBV genotype C; test: Serum HBeAg in HBV-infected PXB mice; assay type: in vivo, hepatitis B virus; conditions: 10 mg/kg and 30 mg/kg, Day 14
Method: (§1) Target volume of blood was collected from all surviving animals under isoflurane anesthesia via the retro-orbital plexus/sinus using Intramedic™ Polyethylene Tubing at each time point. Two microliters (2 μL) from the collected blood were used for human albumin measurements. The remaining blood was centrifuged to separate serum to be used for analyzing the indicated biomarkers. Blood samples were collected according to Table 8.
(§2) The individual blood samples of the animals were left at room temperature for at least 5 minutes to coagulate and then centrifuged at 13200×g, 4° C. for 3 minutes to obtain serum. The serum was divided into separate labeled microtubes and stored at −80° C. until analysis.
Serum HBeAg concentration was determined by SRL, Inc. based on a Chemiluminescent Enzyme Immuno Assay (CLEIA) developed by Fujirebio ([…] HBeAg, […]® Prestoll). The dilution factor was 30 and 10, and the measurement range of this assay was between 0.1 and 1590 C.O.I. For the 30-fold diluted samples, the measurement range was adjusted to be between 3 and 47700 C.O.I. And for the 10-fold diluted samples, the measurement range was adjusted to be between 1 and 15900 C.O.I. The lowest quantification limit of this assay was 3.0 C.O.I.

[3] = system: HBV genotype C; test: Serum HBsAg in HBV-infected PXB mice; assay type: in vivo, hepatitis B virus; conditions: 10 mg/kg and 30 mg/kg, Day 7
Method: as §1, §2
Serum HBsAg concentration was determined by SRL, Inc. (Tokyo, Japan) based on a Chemiluminescent Enzyme Immuno Assay (CLEIA) developed by Fujirebio ([…] HBsAg-HQ, […]® Prestoll). The dilution factor was 30 and 10, and the measurement range of this assay was between 0.005 and 150 IU/mL. For the 30-fold diluted samples, the measurement range was adjusted to be between 0.15 and 4500 IU/mL. And for the 10-fold diluted samples, the measurement range was adjusted to be between 0.05 and 1500 IU/mL. The lowest quantification limit of this assay was 0.15 IU/mL serum.

[4] = XTT cell toxicity in primary human hepatocytes; assay type: cell-based; conditions: human, primary human hepatocytes, read-out: TC50
Method: (§3) Multiplicity of Infection (MOI) is defined as the number of HBV genome equivalents, as determined by the qPCR quantitation, added per cell in the respective growth format. The overnight media was removed from the cells and replaced with 190 μL of new, serum-free HI media/4% PEG8000 and 10 μL of the diluted virus stock (HepG2 AD38 genotype D) for a MOI of 500. Medium alone was added to the cells containing compound for the parallel cytotoxicity evaluation. After 18 hours of virus infection, the cells were gently washed five times with DPBS, followed by a new addition of 200 μL HI media containing compounds on day 1, day 4 and day 7 post-infection. In one set of experiments (Study #01), the effect of giving compound 18 h prior to infection, versus 18 h post-infection was studied. The supernatant removed from the cytotoxicity plates at each medium change was stored at −20° C. for shipment to the client. The supernatant was collected at 10 days post infection and stored at −20° C. for total extracellular HBV DNA copy number to be quantitatively determined by qPCR. Cell viability was measured by XTT tetrazolium dye at day 10 for the cytotoxicity plates.
(§4) Following incubation at 37° C. in a 5% CO2 incubator for ten days, the test plates were stained with the tetrazolium dye XTT (2,3-bis(2-methoxy-4-nitro-5-sulfophenyl}-5-[(phenylamino)carbonyl]-2H-tetrazolium hydroxide). XTT-tetrazolium was metabolized by the mitochondrial enzymes of metabolically active cells to a soluble formazan product. XTT solution was prepared daily as a stock of 1 mg/mL in RPMI1640. Phenazine methosulfate (PMS) solution was prepared at 0.15 mg/mL in PBS and stored in the dark at −20° C.
(§5) XTT/PMS stock was prepared immediately before use by adding 40 μL of PMS per mL of XTT solution. Fifty microliters of XTT/PMS were added to each well of the plate and the plate was re-incubated for 4 hours at 37° C. Plates were sealed with adhesive plate sealers and shaken gently or inverted several times to mix the soluble formazan product and the plate was read spectrophotometrically at 450/650 nm with a Molecular Devices Vmax plate reader.
(§6) Each concentration of inhibitor and controls were analyzed in triplicate for HBV DNA copies and for cellular toxicity, respectively. From control wells without inhibitor, the mean of these three replicates was calculated and the HBV DNA mean was set to 100% viral control and the XTT mean was set to 100% cell viability. The effect of compound was then expressed as % of viral control and % cell viability, respectively.

[5] = system: Primary Human Hepatocytes; test: XTT cell toxicity in primary human hepatocytes; assay type: cell-based
Method: as §3, §4, §5, §6

Which “observations related to treatment” value [1] does the source give for `CCCCC1CN(c2ccccc2)c2cc(SC)c(O/C=C(\F)C(=O)O)cc2S(=O)(=O)N1C` (centres unmarked) [Compound 1, (Z)-3-((3-butyl-2-methyl-7-(methylthio)-1,1-dioxido-5-phenyl-2,3,4,5-tetrahydro-1,2,5-benzothiadiazepin-8-yl)oxy)-2-fluoroacrylic acid] here?
Its value is “No noteworthy observations”.

And the “serum HBeAg compared to controls” value [2]?
Its value is “lower”.

What about the “serum HBsAg compared to controls” value [3] of the same molecule?
The value was “lower”.

What about the CC50 at 10 days ([4]; Study #01, XTT, PHH) of the same molecule?
Its CC50 at 10 days is over 1000 nM.

And the CC50 at 10 days ([4]; Study #02)?
Its CC50 at 10 days is over 200 nM.

And the CC50 at 10 days ([4]; Study #03)?
Its CC50 at 10 days is over 50 nM.

What about the TC50 ([5]; Study #01, 18 h post-infection section) of the same molecule?
Its TC50 is over 1000 nM.

What about the “effect on cell viability” value ([5]; any concentration tested (up to 100 μmol/L)) of the same molecule?
Its value is “did not affect cell viability”.
